According to patent US20100210649A1, “PYRIDAZINONES AND FURAN-CONTAINING COMPOUNDS” (Sloan-Kettering Institute for Cancer Research, priority 2006, published 2010):

What was measured:
[1] = test system: NHBE (normal human bronchiolar epithelial cells); experiment: cells
cells = experiment: Annexin V binding (FACS) apoptosis assay; format: cell-based; conditions: 48 hours, FITC-labeled annexin V
Method: FIG. 42. SKI-267077 induces apoptosis. Cells were treated for 48 hours with SKI-267077 and then binding of FITC-labeled annexin V to cells determined FACS analysis was used to determine the amount of annexin V-positive cells.

caspase 3/7 = experiment: Caspase 3/7 enzyme activity assay in cell extracts; format: cell-based, human; conditions: H2030 cells, 1 μM, 48 h, whole cell extracts
Method: FIG. 3. Activation of caspase 3/7 by SKI-267077. H2030 cells were treated with 1 μM SKI-267077 for 48 h and then caspase 3/7 activity measured in whole cell extracts.
Caspase 3/7 enzyme activity assay. Apoptosis was determined by measuring the enzymatic activity of caspase 3/7 in cell homogenates. Cells were plated at a density of 10,000 cells per well in 96-well plates and treated immediately with drugs for 24-72 h. Caspase 3/7 activity will be determined in cell extracts using Z-DEVD-R110 (rhodamine 110 conjugated to the caspase substrate Z-DEVD) as substrate (Promega). The fluorescence of the cleaved substrate was measured using a micro-titer fluorescence plate reader (Ex: 499 nm, Em: 521 nm).
SKI-267077 stimulates the enzymatic activity of caspase 3/7.

p70 S6 kinase = experiment: Phosphoprotein array, p70 S6 kinase; format: cell-based; conditions: cells treated for 24 hours; PI-3kinase signaling pathway
Method: (§1) FIG. 43A-43C. A phosphoprotein array was used to determine which signaling pathways were affected by treatment of cells with SKI-267077. […] A phosphoprotein array (R and D Systems) was used to measure the level of phosphorylation of cellular proteins. Protein phosphorylation was determined according to the manufacturer's instructions.

H3255 = experiment: [3H]-thymidine incorporation assay, H3255; format: cell-based, human; conditions: H3255, mutant EGFR
Method: (§2) FIGS. 41A-41B. SKI-267077 inhibits DNA synthesis. SKI-267077 was used to elucidate the mechanism by which this agent inhibits cell growth.
(§3) [^3H]-thymidine incorporation assay. Cells were seeded in 12-well plates at a density of 100 000 cells/well and treated with inhibitors for 24 hours. H3-thymidine (3 μCi/mL) was then added for 3 hours. Cells were washed twice with PBS, fixed with cold 10% TCA (in PBS) for 30 min then lysed with 0.5% NaOH/0.5% SDS. DNA was scraped from the wells and the amount of H3-thymidine incorporated determined by liquid scintillation counting.

H2030 cells [2] = experiment: Cell cycle analysis (FACS), H2030; format: cell-based, human; conditions: 24 hours
Method: FIGS. 2A-2B. SKI-267077 induces cell cycle arrest. H2030 cells were treated with SKI-267077 for 24 h. Cell cycle progression was analyzed by FACS analysis. FIG. 2A: Percent of cells in S-phase. FIG. 2B: percent of cells in G1 phase.
Cell cycle analysis. For cell cycle analysis, cells were plated at a density of 500,000 cells per well in 6-well plates. Attached cells were treated with drugs for 24 h. Cells were then collected, washed with PBS and fixed in 70% ethanol for 1 h. For FACS analysis, fixed cells were washed with cold PBS resuspended in PBS containing 200 μg/mL propidium iodide and 0.1% sodium citrate. Flow cytometry was performed on a Becton-Dickinson FACSCalibur flow cytometer and data the processed using FlowJo software.
SKI-267077 induces cell cycle arrest at the G1 phase. Cell cycle progression in the presence of SKI-267077 was determined by FACS analysis of H2030 cells that were treated for 24 hours.

H1975 = experiment: [3H]-thymidine incorporation assay, H1975; format: cell-based, human; conditions: H1975, mutant EGFR
Method: as §2, §3

[3] = test system: MAPK isoforms ERK1 and ERK2; experiment: Phosphoprotein array, ERK1 and ERK2; format: cell-based; conditions: cells treated for 24 hours; MAPK signaling pathway
Method: as §1

AKT isoforms = experiment: Phosphoprotein array, AKT; format: cell-based; conditions: cells treated for 24 hours; PI-3kinase signaling pathway
Method: as §1

H2030 cells [4] = experiment: [3H]-thymidine incorporation assay, H2030; format: cell-based, human; conditions: increasing concentrations, 24 hours
Method: FIG. 1. SKI-267077 blocks DNA synthesis. H2030 cells were treated with the indicated concentration of SKI-267077 for 24 h and then the incorporation of ^3H-thymidine into DNA was determined
as §3
SKI-267077 inhibits DNA synthesis. […] H2030 cells were treated with increasing concentrations of SKI-267077 for 24 hours and then incorporation of ^3H-thymide into DNA determined (FIG. 1).

[5] = Homo sapiens, NHBE, read-out: IC50(uM) NHBE

Cc1cccc(NC(=O)c2ccc([N+](=O)[O-])o2)c1 [compound 71762]
IC50 ([1]; Homo sapiens, NHBE, read-out: IC50(uM) NHBE, phenylfuran-2-carboxamide SAR summary): 15.8 µM
IC50 ([1]; read-out: IC50(uM) NHBE, phenylfuran-2-carboxamide SAR summary): 14.8 µM

Cc1ccc(NC(=O)c2ccc([N+](=O)[O-])o2)cc1 [compound 98697]
IC50 [1, 5]: 29.4 µM

O=C(Nc1ccc(Cl)cc1)c1ccc([N+](=O)[O-])o1 [compound 98698, 5-nitro-furan-2-carboxylic acid (4-chloro-phenyl)-amide]
IC50 [1, 5]: 21.4 µM

O=c1c(Cl)c(Cl)cnn1-c1ccc(Cl)cc1Cl [compound 267077]
apoptosis, binding of annexin-V to the cell surface (cells): induction of apoptosis
activity of caspase 3/7 (caspase 3/7): increase in the activity of caspase 3/7
phosphorylation of p70 S6 kinase (p70 S6 kinase): blocked phosphorylation
DNA synthesis (H3255): dose-dependent reduction in DNA synthesis
percent of cells in the G1 phase (H2030 cells [2]): increase in the percent of cells in the induce G1 phase
percent of cells in the S phase (H2030 cells [2]): reduction of the percent of cells in the S phase
DNA synthesis (H1975): dose-dependent reduction in DNA synthesis
phosphorylation of ERK1 and ERK2 [3]: reduced phosphorylation of the MAPK isoforms ERK1 and ERK2
phosphorylation of AKT isoforms (AKT isoforms): blocked phosphorylation of all three AKT isoforms
incorporation of 3H-thymidine into DNA (DNA synthesis) (H2030 cells [4]): dose-dependent decrease in DNA synthesis
